This note sets out measurements from patent US20240165196A1, “Beta-Lactamase Inhibitors” (VIB VZW, priority 2021, published 2024).

One data set has as its system E. coli SHV-11. The data set can be described thus: checkerboard assay (FICI), peptide versus penicillin G. The format is cell-based. Particulars: strain with SHV-11; FICI below 0.5 = synergy. From the text: (§1) FIGS. 2A-2M. (FIG. 2A) TEM mutations and their effects on stability (total energy) as predicted by FoldX. […] Dashed line indicates a total energy difference of 0.5 kcal/mol, the FoldX cut-off above which mutations are considered to be destabilizing. (FIG. 2B) Barplot mapping mutations in (FIG. 2A) to the TEM sequence and indicating occurrence. […] The bar heights correspond to the number of times a mutation occurs across different TEM variants (right-hand y-axis). The color coding is identical to that in (FIG. 2A). Red line indicates the TANGO scores (indicated on the left-hand y-axis), with peaks corresponding to APRs. (FIG. 2C) Mapping of mutations in (FIG. 2A) and (FIG. 2B) to the TEM structure (pdb 1xpb). Protein surface is shown in gray, color coding of mutations is identical to (FIG. 2A) and (FIG. 2B). (FIGS. 2D, 2E, and 2F) Temperature-dependent evolution of the Right-Angle Light Scattering (RALS) intensity during a temperature ramp, similar as in FIG. 1F for key mutants of TEM1, namely TEM-10 (FIG. 2D), TEM-30 (FIG. 2E) and TEM-155 (FIG. 2F). Experiments were shown in triplicate, single repeat is shown. (FIG. 2G) Schematic representation of the structure of the peptides. APR—Aggregation Prone Region, R—Arginine. (FIG. 2H) Ribbon representation of the superposition of the crystal structures of TEM (green, pdb id 1bt5) and SHV (blue, pdb id 1shv). The catalytic site of the beta-lactamase activity is indicated and location of APR3 is shown in red. (FIG. 2I) TANGO aggregation score and alignment of APR3 in TEM and SHV. (FIG. 2J) Fractional Inhibitory Concentration Index determination of 5 peptides versus penicillin on E. coli TEM-104. […] FICI values below 0.5 indicate synergy. Values between 0.5 and 1.0 indicate additivity and values greater than 1 indicate indifference between the combined substances. (FIG. 2K) Same as J for E. coli SHV-11. (FIG. 2L) Same as J for a kanamycin resistant E. coli strain. (FIG. 2M) FICI values for the TEM3.2 peptide on a range of E. coli strains.
(§2) Moreover, the core sequence of peptide TEM3.0 also occurs in the structurally related SHV β-lactamase ([…]). Although the C-terminal extension residues H and N have been replaced with physicochemically similar R and Q, respectively (FIG. 2H). […] To quantify the synergy between these four peptides and penicillin G, we performed a so-called checkerboard assay, which allows to compare the activity of two test compounds co-incubated (here peptide and a beta-lactam antibiotic), to their individual activities in isolation. The result from the assay is quantified as the Fractional Inhibitory Concentration Index (FICI), and it is generally accepted that values below 0.5 indicate synergistic effects between the compounds. As a control, we generated a peptide using the same design, but based on a previously identified APR from the β-galactosidase enzyme (BGAL)^16 from E. coli (APR=SVIIWSL, peptide sequence=[…]) that has a MIC value>100 μg/mL on E. coli strain UZ_TEM104. We evaluated the synergy of the peptides with penicillin G in clinical E. coli isolates carrying the TEM ([…]) or SHV enzymes ([…]). […] As a further control, we also performed a checkerboard assay with an E. coli strain that was resistant to the aminoglycoside kanamycin and observed no synergy between this unrelated antibiotic and our peptides (FIG. 2L), in line with the notion that we are inhibiting a beta-lactamase but not the aminoglycoside degrading enzyme. […] The list of strains included some that harbored only TEM or SHV, but others contained additional Ambler Class A (CTX-M or […]) or Class B (VIM and NDM) beta-lactamases. […] In contrast, the presence of the NDM-type […], that does have a high affinity for Ampicillin and that is completely distinct in sequence and structure from TEM and SHV, seemed to completely prevent the effect of the peptide on the beta-lactam sensitivity of the strains in which it occurred (see also further). […]

Another data set concerns E. coli TEM-104. The data set is described as above. The format is cell-based. Particulars: strain with TEM; FICI below 0.5 = synergy.
Description: as §1, §2

Data set [1] deals with TEM beta-lactamase in E. coli UZ_TEM104. The data set can be described thus: western blot of inclusion body (IB) fraction for TEM. In kind it is cell-based. The conditions noted are these: 12 μM peptide in PBS, 120 min. On the procedure:
(§3) FIGS. 3A-3P. […] Three replicates are shown for each condition. […] A single representative image is shown. […] Three replicates are shown for each condition. (FIG. 3E) [Left] […] [Middle] […] [Right] […] A single representative image is shown. […] A single representative image is shown. […] A single representative image is shown. […] A single representative blot is shown. […] 106 cells were analysed for the plot.
(§4) Moreover, we confirmed the presence of the protein in the correct band using mass spectrometry proteomics. We repeated this with a strain expressing SHV-154, blotting with a polyclonal rabbit antibody raised against the recombinant SHV enzyme described above (FIG. 3K).
(§5) The overnight culture of bacteria was centrifuged for 30 min at 4,000×g and cells were washed with physiological water (NaCl 0.9%). Bacterial cells were treated by peptide at the appropriate concentration for at least 2 h at 37 C. The bacterial pellets were washed with 10 mL buffer A (50 mM HEPES, pH 7.5, 300 mM NaCl, 5 mM β-mercaptoethanol, 1.0 mM EDTA) and centrifuged at 4° C. for 30 min at 4,000×g. The supernatant was discarded and 20 mL of buffer B (buffer A plus 1 tablet of the protease and phosphatase Inhibitor Cocktail (ab201119, Abcam, UK) was added to the bacterial pellet. In order to break the cells, a High-Pressure Homogenizer (Glen Creston Ltd) with the pressure set to 20,000-25,000 psi was used on ice, and in addition, the suspensions were sonicated (Branson Digital sonifier 50/60 Hz) on ice with alternating 2 min cycle (15 pulses at 50% power with 30 s pauses on ice, until completing 2 min total sonication time). The lysed cells were centrifuged at 4° C. for 30 min at 11,000×g. The precipitated fraction was afterward re-suspended with 10 mL buffer D (buffer A plus 0.8% (V/V) Triton X-100, 0.1% sodium deoxycholate) and the suspension was sonicated to ensure the pellet is completely dissolved. This step was repeated three times. Centrifugation was performed at 4° C. for 30 min at 11,000×g. Finally, to solubilize IBs, the pellet was suspended in 500 ul of buffer F (50 mM HEPES, pH 7.5, 8.0 M urea) of precipitated fraction.
In general terms: A western blot detects proteins with antibodies after separation by electrophoresis.

Data set [2] has as its system SHV beta-lactamase in strain expressing SHV-154. The data set can be described thus: western blot of inclusion body (IB) fraction for SHV. The format is cell-based, E. coli. The conditions noted are these: 12 μM peptide in PBS, 120 min. As to the method:
as §3, §4, §5

The subject of data set [3] is primary Human Umbilical Vein Endothelial Cells (HUVEC). In kind it is cell-based.

In the case of Ac-RLTAFLHNRRPRLTAFLHNRR-NH2 [TEM3.0], the “synergy with penicillin G (FICI)” value was “not in a strain containing the SHV-11 enzyme” in the data set on E. coli SHV-11 and “clear synergy” in the data set on E. coli TEM-104. Further, the “enrichment of the TEM protein in inclusion bodies (western blot)” value in data set [1] is recorded as “clear enrichment of the TEM protein in IBs”. Besides, the “accumulation of the SHV enzyme in inclusion bodies (western blot)” value in data set [2] is reported as “not”.
Take Ac-RLTAFLHNRRPRLTAFLRQRR-NH2 [TEM3.2]: the “synergy with penicillin G (FICI)” value with E. coli SHV-11 and with E. coli TEM-104 was “synergy” in each case. The “enrichment of the TEM protein in inclusion bodies (western blot)” value in data set [1] is “clear enrichment of the TEM protein in IBs”. The “accumulation of the SHV enzyme in inclusion bodies (western blot)” value in data set [2] was “accumulates in IBs”. For the same substance, the “cytotoxicity (Cell Titer Blue)” value in data set [3] is “not cytotoxic”.
